Columns and labels:
EKVX = experiment: NCI 60 cell line panel (SRB), EKVX; assay type: cell-based; details: Homo sapiens, Non-Small Cell Lung Cancer, single dose of 10 μM, read-out: Cell Growth Percent
OVCAR-5 = experiment: NCI 60 cell line panel (SRB), OVCAR-5; assay type: cell-based; details: Homo sapiens; OVCAR-5, Ovarian Cancer; single dose of 10 μM; read-out: Cell Growth Percent
VEGFR-2 (KDR) = target: T1, VEGFR-2 (KDR) (Homo sapiens, UniProt P35968); experiment: In vitro VEGFR-2 tyrosine kinase activity (Kinase-Glo Plus luminescence, BPS Bioscience); assay type: biochemical; details: single dose concentration of 10 μM
T1 construct: purchased BPS Bioscience 40301

OVCAR-3 = experiment: NCI 60 cell line panel (SRB), OVCAR-3; assay type: cell-based; details: Homo sapiens; OVCAR-3, Ovarian Cancer; single dose of 10 μM; read-out: Cell Growth Percent
SNB-19 = experiment: NCI 60 cell line panel (SRB), SNB-19; assay type: cell-based; details: Homo sapiens; SNB-19, CNS Cancer; single dose of 10 μM; read-out: Cell Growth Percent
SK-OV-3 = experiment: NCI 60 cell line panel (SRB), SK-OV-3; assay type: cell-based; details: Homo sapiens; SK-OV-3, Ovarian Cancer; single dose of 10 μM; read-out: Cell Growth Percent
786-0 = experiment: NCI 60 cell line panel (SRB), 786-0; assay type: cell-based; details: Homo sapiens; 786-0, Renal Cancer; single dose of 10 μM; read-out: Cell Growth Percent
MALME-3M = experiment: NCI 60 cell line panel (SRB), MALME-3M; assay type: cell-based; details: Homo sapiens, Melanoma, single dose of 10 μM, read-out: Cell Growth Percent
SR = experiment: NCI 60 cell line panel (SRB), SR; assay type: cell-based; details: Homo sapiens, Leukemia, single dose of 10 μM, read-out: Cell Growth Percent
MOLT-4 = experiment: NCI 60 cell line panel (SRB), MOLT-4; assay type: cell-based; details: Homo sapiens; MOLT-4, Leukemia; single dose of 10 μM; read-out: Cell Growth Percent
RPMI-8226 = experiment: NCI 60 cell line panel (SRB), RPMI-8226; assay type: cell-based; details: Homo sapiens; RPMI-8226, Leukemia; single dose of 10 μM; read-out: Cell Growth Percent
HCT-15 = experiment: NCI 60 cell line panel (SRB), HCT-15; assay type: cell-based; details: Homo sapiens; HCT-15, Colon Cancer; single dose of 10 μM; read-out: Cell Growth Percent
NCI-H226 = experiment: NCI 60 cell line panel (SRB), NCI-H226; assay type: cell-based; details: Homo sapiens; NCI-H226, Non-Small Cell Lung Cancer; single dose of 10 μM; read-out: Cell Growth Percent
MDA-MB-435 = experiment: NCI 60 cell line panel (SRB), MDA-MB-435; assay type: cell-based; details: Homo sapiens; MDA-MB-435, Melanoma; single dose of 10 μM; read-out: Cell Growth Percent
HL-60(TB) = experiment: NCI 60 cell line panel (SRB), HL-60(TB); assay type: cell-based; details: Homo sapiens, Leukemia, single dose of 10 μM, read-out: Cell Growth Percent
CAKI-1 = experiment: NCI 60 cell line panel (SRB), CAKI-1; assay type: cell-based; details: Homo sapiens; CAKI-1, Renal Cancer; single dose of 10 μM; read-out: Cell Growth Percent
NCI/ADR-RES = experiment: NCI 60 cell line panel (SRB), NCI/ADR-RES; assay type: cell-based; details: Homo sapiens, Ovarian Cancer, single dose of 10 μM, read-out: Cell Growth Percent
HCC-2998 = experiment: NCI 60 cell line panel (SRB), HCC-2998; assay type: cell-based; details: Homo sapiens; HCC-2998, Colon Cancer; single dose of 10 μM; read-out: Cell Growth Percent
HCT-116 = experiment: NCI 60 cell line panel (SRB), HCT-116; assay type: cell-based; details: Homo sapiens; HCT-116, Colon Cancer; single dose of 10 μM; read-out: Cell Growth Percent
SK-MEL-2 = experiment: NCI 60 cell line panel (SRB), SK-MEL-2; assay type: cell-based; details: Homo sapiens; SK-MEL-2, Melanoma; single dose of 10 μM; read-out: Cell Growth Percent
NCI-H522 = experiment: NCI 60 cell line panel (SRB), NCI-H522; assay type: cell-based; details: Homo sapiens; NCI-H522, Non-Small Cell Lung Cancer; single dose of 10 μM; read-out: Cell Growth Percent
SNB-75 = experiment: NCI 60 cell line panel (SRB), SNB-75; assay type: cell-based; details: Homo sapiens; SNB-75, CNS Cancer; single dose of 10 μM; read-out: Cell Growth Percent
NCI-H322M = experiment: NCI 60 cell line panel (SRB), NCI-H322M; assay type: cell-based; details: Homo sapiens, Non-Small Cell Lung Cancer, single dose of 10 μM, read-out: Cell Growth Percent
SK-MEL-5 = experiment: NCI 60 cell line panel (SRB), SK-MEL-5; assay type: cell-based; details: Homo sapiens; SK-MEL-5, Melanoma; single dose of 10 μM; read-out: Cell Growth Percent
A498 = experiment: NCI 60 cell line panel (SRB), A498; assay type: cell-based; details: Homo sapiens; A498, Renal Cancer; single dose of 10 μM; read-out: Cell Growth Percent
M14 = experiment: NCI 60 cell line panel (SRB), M14; assay type: cell-based; details: Homo sapiens; M14, Melanoma; single dose of 10 μM; read-out: Cell Growth Percent
NCI-H460 = experiment: NCI 60 cell line panel (SRB), NCI-H460; assay type: cell-based; details: Homo sapiens; NCI-H460, Non-Small Cell Lung Cancer; single dose of 10 μM; read-out: Cell Growth Percent
HS 578T = experiment: NCI 60 cell line panel (SRB), HS 578T; assay type: cell-based; details: Homo sapiens, Breast Cancer, single dose of 10 μM, read-out: Cell Growth Percent
HT29 = experiment: NCI 60 cell line panel (SRB), HT29; assay type: cell-based; details: Homo sapiens, HT-29; HT29, Colon Cancer; single dose of 10 μM; read-out: Cell Growth Percent
SF-295 = experiment: NCI 60 cell line panel (SRB), SF-295; assay type: cell-based; details: Homo sapiens; SF-295, CNS Cancer; single dose of 10 μM; read-out: Cell Growth Percent
SF-539 = experiment: NCI 60 cell line panel (SRB), SF-539; assay type: cell-based; details: Homo sapiens; SF-539, CNS Cancer; single dose of 10 μM; read-out: Cell Growth Percent
MDA-MB-231/ATCC = experiment: NCI 60 cell line panel (SRB), MDA-MB-231/ATCC; assay type: cell-based; details: Homo sapiens, Breast Cancer, single dose of 10 μM, read-out: Cell Growth Percent
MCF7 = experiment: NCI 60 cell line panel (SRB), MCF7; assay type: cell-based; details: Homo sapiens; MCF7, Breast Cancer; single dose of 10 μM; read-out: Cell Growth Percent
SK-MEL-28 = experiment: NCI 60 cell line panel (SRB), SK-MEL-28; assay type: cell-based; details: Homo sapiens; SK-MEL-28, Melanoma; single dose of 10 μM; read-out: Cell Growth Percent

T1 sequence (P35968 20-1356): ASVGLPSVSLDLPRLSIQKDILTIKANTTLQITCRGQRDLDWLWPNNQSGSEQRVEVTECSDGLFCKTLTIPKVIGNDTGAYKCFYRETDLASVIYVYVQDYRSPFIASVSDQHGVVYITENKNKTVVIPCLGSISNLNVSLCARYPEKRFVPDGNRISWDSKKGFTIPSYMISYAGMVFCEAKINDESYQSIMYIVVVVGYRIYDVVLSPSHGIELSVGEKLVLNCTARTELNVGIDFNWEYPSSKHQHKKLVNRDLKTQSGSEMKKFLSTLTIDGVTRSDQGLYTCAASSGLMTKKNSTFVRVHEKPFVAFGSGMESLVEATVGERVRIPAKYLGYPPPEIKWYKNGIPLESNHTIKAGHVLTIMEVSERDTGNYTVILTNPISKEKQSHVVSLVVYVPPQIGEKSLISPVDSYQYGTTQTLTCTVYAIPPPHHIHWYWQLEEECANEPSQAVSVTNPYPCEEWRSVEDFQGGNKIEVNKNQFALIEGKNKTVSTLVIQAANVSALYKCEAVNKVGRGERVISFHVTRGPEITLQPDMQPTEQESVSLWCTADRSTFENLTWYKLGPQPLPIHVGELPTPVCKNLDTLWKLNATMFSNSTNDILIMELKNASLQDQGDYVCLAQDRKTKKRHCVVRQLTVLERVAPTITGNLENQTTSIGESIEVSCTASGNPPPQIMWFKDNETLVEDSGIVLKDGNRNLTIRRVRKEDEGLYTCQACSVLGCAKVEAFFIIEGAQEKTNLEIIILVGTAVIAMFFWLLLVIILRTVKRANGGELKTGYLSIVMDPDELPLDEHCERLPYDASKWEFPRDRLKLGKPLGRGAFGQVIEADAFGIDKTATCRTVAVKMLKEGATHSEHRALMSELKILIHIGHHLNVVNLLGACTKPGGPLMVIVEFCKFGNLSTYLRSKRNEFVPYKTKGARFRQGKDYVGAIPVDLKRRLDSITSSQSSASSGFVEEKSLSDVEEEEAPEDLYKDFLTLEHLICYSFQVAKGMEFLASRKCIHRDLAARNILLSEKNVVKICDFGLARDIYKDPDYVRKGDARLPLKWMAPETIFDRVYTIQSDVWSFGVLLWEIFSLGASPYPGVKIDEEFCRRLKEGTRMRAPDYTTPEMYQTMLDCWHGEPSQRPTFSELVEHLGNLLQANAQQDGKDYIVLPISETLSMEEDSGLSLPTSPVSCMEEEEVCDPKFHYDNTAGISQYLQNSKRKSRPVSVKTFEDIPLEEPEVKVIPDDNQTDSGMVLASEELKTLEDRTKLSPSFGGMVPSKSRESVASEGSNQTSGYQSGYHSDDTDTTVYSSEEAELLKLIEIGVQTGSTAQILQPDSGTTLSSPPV

In the case of `CCOC(=O)c1c(C)oc2ncnc(Nc3ccc(NC(=O)Nc4cccc(Cl)c4)cc3)c12` [Compound 15d], the activity at 10 µM (EKVX) was 72.3%, the activity at 10 µM (OVCAR-5) was 122% and the inhibition at 10 µM (VEGFR-2 (KDR)) was 61%. For the same compound, the activity at 10 µM (OVCAR-3) was 80.8%, the activity at 10 µM (SNB-19) was 84.6% and the activity at 10 µM (SK-OV-3) was 93.2%. It also gave an activity at 10 µM (786-0) of 79.1%, an activity at 10 µM (MALME-3M) of 81.4% and an activity at 10 µM (SR) of 53.6%. The activity at 10 µM (MOLT-4) was 49.2%, the activity at 10 µM (RPMI-8226) was 46.1% and the activity at 10 µM (HCT-15) was 58.9%. It also gave an activity at 10 µM (NCI-H226) of 54.8%, an activity at 10 µM (MDA-MB-435) of 65.8% and an activity at 10 µM (HL-60(TB)) of 88.4%. For the same compound, the activity at 10 µM (CAKI-1) was 90.8%, the activity at 10 µM (NCI/ADR-RES) was 43.7% and the activity at 10 µM (HCC-2998) was 105%. The activity at 10 µM (HCT-116) was 50.7%, the activity at 10 µM (SK-MEL-2) was 72.7% and the activity at 10 µM (NCI-H522) was 57.1%. It also gave an activity at 10 µM (SNB-75) of 70.6%, an activity at 10 µM (NCI-H322M) of 83.5% and an activity at 10 µM (SK-MEL-5) of 52.9%. For the same compound, the activity at 10 µM (A498) was 63%, the activity at 10 µM (M14) was 48.6% and the activity at 10 µM (NCI-H460) was 67.1%. It also gave an activity at 10 µM (HS 578T) of 80.6%, an activity at 10 µM (HT29) of 37.1% and an activity at 10 µM (SF-295) of 79.5%. It also gave an activity at 10 µM (SF-539) of 16.6%, an activity at 10 µM (MDA-MB-231/ATCC) of 18.6% and an activity at 10 µM (MCF7) of 43.3%. The activity at 10 µM (SK-MEL-28) was 61.8%.
`CCOC(=O)c1c(C)oc2ncnc(Nc3ccc(NC(=O)Nc4ccc(CC)cc4)cc3)c12` [Compound 15i] was tested, and the activity at 10 µM (EKVX) was 102%, the activity at 10 µM (OVCAR-5) was 107% and the inhibition at 10 µM (VEGFR-2 (KDR)) was 23%. For the same compound, the activity at 10 µM (OVCAR-3) was 118%, the activity at 10 µM (SNB-19) was 97.9% and the activity at 10 µM (SK-OV-3) was 88.2%. The activity at 10 µM (786-0) was 99.8%, the activity at 10 µM (MALME-3M) was 101% and the activity at 10 µM (SR) was 81.6%. It also gave an activity at 10 µM (MOLT-4) of 98.6%, an activity at 10 µM (RPMI-8226) of 95% and an activity at 10 µM (HCT-15) of 105%. The activity at 10 µM (NCI-H226) was 104%, the activity at 10 µM (MDA-MB-435) was 102% and the activity at 10 µM (HL-60(TB)) was 103%. It also gave an activity at 10 µM (CAKI-1) of 98.3%, an activity at 10 µM (NCI/ADR-RES) of 97.2% and an activity at 10 µM (HCC-2998) of 114%. For the same compound, the activity at 10 µM (HCT-116) was 78.7%, the activity at 10 µM (SK-MEL-2) was 120% and the activity at 10 µM (NCI-H522) was 83.7%. The activity at 10 µM (SNB-75) was 80.5%, the activity at 10 µM (NCI-H322M) was 102% and the activity at 10 µM (SK-MEL-5) was 93.7%. For the same compound, the activity at 10 µM (A498) was 109%, the activity at 10 µM (M14) was 99.9% and the activity at 10 µM (NCI-H460) was 106%. The activity at 10 µM (HS 578T) was 97.7%, the activity at 10 µM (HT29) was 103% and the activity at 10 µM (SF-295) was 109%. For the same compound, the activity at 10 µM (SF-539) was 89%, the activity at 10 µM (MDA-MB-231/ATCC) was 94.6% and the activity at 10 µM (MCF7) was 94.9%. It also gave an activity at 10 µM (SK-MEL-28) of 105%.
